In one assay the test system is permeabilized HepG2. Description: Calcium retention capacity (CRC) assay in permeabilized HepG2. In kind it is cell-based. As to conditions: Homo sapiens.
The next assay addresses Human CypD (Homo sapiens, UniProt P30405). Description: Cyclophilin peptidyl-prolyl isomerase functional assay (PPIase), cyclophilin D. In kind it is biochemical.
Assay [1] addresses recombinant Calcineurin (CaN) (Homo sapiens, UniProt P63098+Q08209). Description: Calcineurin phosphatase inhibition assay without cyclophilin A. The assay is classed as biochemical.
Procedure: (§1) Cyclophilin A and D peptidyl-prolyl isomerase functional assays using human recombinant enzymes (PPlase assay), as well as in a calcineurin inhibition assay with and without cyclophilin A are conducted.
(§2) The compounds are supplied as a dry powder or oils and made up as a 10 mM stock solution in 100% DMSO. Subsequent dilutions were made in 100% DMSO for use in all assays.
(§3) Calcineurin Phosphatase Inhibition Assay With and Without Cyclophilin A
(§4) This colorimetric 96 well assay is designed for inhibitor screening of recombinant Calcineurin (CaN). […] In a 96-well plate, two dilution series are prepared, one with the cyclophilin A enzyme (7-point) and another without (4-point). An assay buffer/calcineurin/calmodulin master mix is added followed by the phosphopeptide substrate (RII). After incubation at 30° C. the reaction is stopped by the addition of malachite green/molybdate reagent. The coloured complex formed with liberated phosphate is quantified by reading the absorbance at 620 nm. The blank corrected data was plotted against inhibitor concentration to determine an IC50 value.
For another assay, the target named is Human CypA (Homo sapiens, UniProt P62937). Description: Cyclophilin peptidyl-prolyl isomerase functional assay (PPIase), cyclophilin A. The assay is classed as biochemical. As to conditions: human recombinant enzyme, 10° C.; read-out: Inhibition (Ki, nM) Human CypA.
The target of assay [2] is recombinant Calcineurin (CaN) + CypA (Homo sapiens, UniProt P62937+P63098+Q08209). Briefly: Calcineurin phosphatase inhibition assay with cyclophilin A. The assay is classed as biochemical. As to conditions: RII phosphopeptide substrate.
Procedure: as §1, §2, §3, §4
Where [3] appears, read: permeabilized HepG2, Calcium Green 5N, read-out: Calcium Retention Capacity EC50.
Where [4] appears, read: human recombinant enzyme, 10° C., read-out: Inhibition (Ki, nM) Human CypD.
[5] abbreviates: without cyclophilin A, RII phosphopeptide substrate, read-out: Calcineurin Inhibition (IC50, nM) −CypA.

SMILES strings stand for the structures. Where two headings read alike, the source gives them in different places.

Sequence of recombinant Calcineurin (CaN) (P63098 whole entry, other chains not shown): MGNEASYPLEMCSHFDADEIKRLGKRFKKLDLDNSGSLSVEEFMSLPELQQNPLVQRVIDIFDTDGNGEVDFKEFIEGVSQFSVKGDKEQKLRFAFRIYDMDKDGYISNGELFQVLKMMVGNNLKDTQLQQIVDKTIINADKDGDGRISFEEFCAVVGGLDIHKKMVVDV
Sequence of Human CypD (P30405 30-207): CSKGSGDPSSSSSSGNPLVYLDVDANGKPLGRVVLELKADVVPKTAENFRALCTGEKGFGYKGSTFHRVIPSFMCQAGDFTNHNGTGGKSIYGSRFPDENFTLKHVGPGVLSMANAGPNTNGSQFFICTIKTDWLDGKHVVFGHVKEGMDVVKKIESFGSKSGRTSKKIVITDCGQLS
Sequence of Human CypA (P62937 whole entry): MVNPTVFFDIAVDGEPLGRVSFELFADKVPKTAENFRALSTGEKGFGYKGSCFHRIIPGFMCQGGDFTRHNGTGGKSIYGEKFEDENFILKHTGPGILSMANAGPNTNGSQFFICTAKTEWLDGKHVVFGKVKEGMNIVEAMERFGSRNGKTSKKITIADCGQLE
Sequence of recombinant Calcineurin (CaN) + CypA (P62937 whole entry, other chains not shown): as the sequence (P62937 whole entry) above
Sequence of recombinant Calcineurin (CaN) + CypA (P63098 whole entry, other chains not shown): as the sequence (P63098 whole entry, other chains not shown) above
Procedure for Human CypA: as §1, §2
(§5) Cyclophilin Peptidyl-Prolyl Isomerase Functional Assay
(§6) Measurements are performed using an Agilent 8453 spectrophotometer. Assay buffer was cooled to 10° C. (with stirring) in a precision glass cuvette and inhibitor is added from a DMSO stock solution to afford a final concentration of <1% DMSO. A blank spectrum is obtained and then enzyme and substrate are added and the change in absorbance measured over 5 min. A first order rate is fitted to the absorbance data to obtain a rate constant (first 10 to 15 s were eliminated due to mixing). The catalytic rate is calculated from the enzymatic rate minus the background rate. The enzymatic rate constant, determined in duplicate at each inhibitor concentration, is plotted against inhibitor concentration and a non-linear fit by SigmaPlot generated a Ki.
Procedure for Human CypD: as §1, §2, §5, §6
Procedure for permeabilized HepG2: The compounds are also tested in a calcium retention capacity (CRC) assay in permeabilized HepG2.
as §2
Calcium Retention Capacity (CRC) Assay in Permeabilized HepG2
HepG2 cells are permeabilised with 100 μM digitonin for 10 min in ice cold buffer containing 1 mM EGTA. Following two wash steps to remove the digitonin, the cells are plated into 96 well black and clear plates at 1e^6 cell per well in 180 μL assay buffer containing 0.5 μM Calcium Green 5N. Compounds dilutions are made in DMSO to 1000-fold the final concentration, diluted 1:100 in assay buffer and added to the assay as 20 μL per well. The assay buffer contained 5 mM glutamate and 2.5 mM malate. The cell plate is immediately run on the FLIPR Tetra™ which added 5 μL of 200 μM (5 μM) calcium chloride every 5 minutes whilst reading the plate every 3 seconds. The area under the curve at each concentration of compound is calculated. EC50 values are calculated.
The assay as described above measures the loss of inhibition based on the release of calcium, which is determined by increased intensity of fluorescence reporting of the calcium-binding dye used in the assay.

The EC50 is the concentration needed to bring the measured effect to its halfway point. In general, Ki refers to a dissociation constant, usually derived from enzyme kinetics or from competition with a known ligand. One may read the IC50 as the point on the concentration scale where inhibition reaches its midpoint. In the case of `CC[C@@H]1NC(=O)[C@H]([C@H](O)[C@H](C)C/C=C/c2cccs2)N(C)C(=O)[C@H](C(C)C)N(C)C(=O)[C@H](CC(C)C)N(C)C(=O)[C@H](CC(C)C)N(C)C(=O)[C@@H](C)NC(=O)[C@H](C)NC(=O)[C@H](CC(C)C)N(C)C(=O)[C@H](C(C)C)NC(=O)[C@H](CC(C)C)N(C)C(=O)C(OCCN(C)C)N(C)C1=O` (some centres unmarked) [Compound 4], in the assay with permeabilized HepG2 (setting [3]), the EC50 stood at 867 nM. For the same compound, on Human CypD (setting [4]), the Ki was 11 nM. The IC50 in assay [1] (setting [5]) came out at 1160 nM.

`CC[C@@H]1NC(=O)[C@H]([C@H](O)[C@H](C)C/C=C/c2ccc3ccccc3c2)N(C)C(=O)[C@H](C(C)C)N(C)C(=O)[C@H](CC(C)C)N(C)C(=O)[C@H](CC(C)C)N(C)C(=O)[C@@H](C)NC(=O)[C@H](C)NC(=O)[C@H](CC(C)C)N(C)C(=O)[C@H](C(C)C)NC(=O)[C@H](CC(C)C)N(C)C(=O)C(OCCN(C)C)N(C)C1=O` (some centres unmarked) [Compound 6]: the EC50 with permeabilized HepG2 (setting [3]) is 964 nM. Moreover, the Ki on Human CypD (setting [4]) was found to be 6.5 nM. For the same compound, the IC50 in assay [1] (setting [5]) is more than 10000 nM.

As to `CC[C@@H]1NC(=O)[C@H]([C@H](O)[C@H](C)C/C=C/c2ccc(C(F)(F)F)cc2)N(C)C(=O)[C@H](C(C)C)N(C)C(=O)[C@H](CC(C)C)N(C)C(=O)[C@H](CC(C)C)N(C)C(=O)[C@@H](C)NC(=O)[C@H](C)NC(=O)[C@H](CC(C)C)N(C)C(=O)[C@H](C(C)C)NC(=O)[C@H](CC(C)C)N(C)C(=O)C(OCCN(C)C)N(C)C1=O` (some centres unmarked) [Compound 3], the EC50 in the assay on permeabilized HepG2 (setting [3]) was 1370 nM. The Ki on Human CypD (setting [4]) was found to be 9.4 nM. Moreover, the IC50 in assay [1] (setting [5]) is more than 10000 nM.

Turning to `CC[C@@H]1NC(=O)[C@H]([C@H](O)[C@H](C)C/C=C/c2ccc(C)cc2)N(C)C(=O)[C@H](C(C)C)N(C)C(=O)[C@H](CC(C)C)N(C)C(=O)[C@H](CC(C)C)N(C)C(=O)[C@@H](C)NC(=O)[C@H](C)NC(=O)[C@H](CC(C)C)N(C)C(=O)[C@H](C(C)C)NC(=O)[C@H](CC(C)C)N(C)C(=O)C(OCCN(C)C)N(C)C1=O` (some centres unmarked) [Compound 2], the EC50 with permeabilized HepG2 (HepG2, read-out: Calcium Retention Capacity EC50 (nM)) was determined as 512 nM. On Human CypD, this compound showed a Ki of 11 nM. For the same compound, in assay [1], the IC50 turned out to be 3950 nM.

For `CC[C@@H]1NC(=O)[C@H]([C@H](O)[C@H](C)C/C=C/c2ccc(OC)cc2)N(C)C(=O)[C@H](C(C)C)N(C)C(=O)[C@H](CC(C)C)N(C)C(=O)[C@H](CC(C)C)N(C)C(=O)[C@@H](C)NC(=O)[C@H](C)NC(=O)[C@H](CC(C)C)N(C)C(=O)[C@H](C(C)C)NC(=O)[C@H](CC(C)C)N(C)C(=O)C(OCCN(C)C)N(C)C1=O` (some centres unmarked) [Compound 5], the EC50 with permeabilized HepG2 (setting [3]) amounted to 623 nM. In addition, the Ki at Human CypD (setting [4]) was 8.4 nM; at Human CypA, 5.5 nM. Moreover, the 50% inhibitory concentration (IC50) came out at 2430 nM in assay [2] and 2660 nM in assay [1] (setting [5]).

Source of the values: patent US20230203099A1, “CYCLOPHILIN INHIBITORS AND USES THEREOF” (priority 2020, published 2023).
